Test results published in publication PMC2802337 (Prostaglandins, leukotrienes, and essential fatty acids, 2009).

Target: T1, 15-prostaglandin dehydrogenase/eicosanoid oxidoreductase (EOR) (Homo sapiens, UniProt P15428)
T1 sequence (P15428 1-266): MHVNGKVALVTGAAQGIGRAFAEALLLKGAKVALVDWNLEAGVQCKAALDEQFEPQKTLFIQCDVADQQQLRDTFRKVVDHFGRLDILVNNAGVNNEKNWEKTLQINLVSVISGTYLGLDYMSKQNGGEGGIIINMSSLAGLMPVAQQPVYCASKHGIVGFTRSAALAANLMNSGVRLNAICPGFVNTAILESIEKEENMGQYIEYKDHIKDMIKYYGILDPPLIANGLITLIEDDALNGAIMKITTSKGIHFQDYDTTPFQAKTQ
Assay: spectrophotometric NADH formation at […] nm, initial rate of conversion
Format: biochemical

spectrophotometric NADH formation at 340 nm, initial rate of conversion: 3.1 µM/min
SMILES: CCCCC[C@H](O)/C=C/C=C\C=C\C=C\[C@@H](O)[C@@H](O)CCCC(=O)O [LXA4]
